How the values were obtained:
[1] = test system: Mycobacterium tuberculosis Erdman (autoluminescent); assay: Einf, fitted maximum growth inhibition of three-drug combination (fraction); higher = stronger maximal inhibition
Method: (§1)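 DiaMOND equipotent three-drug combination dose responses (10 doses, 1.5- or 2-fold spacing, centred on IC90) against autoluminescent M. tuberculosis Erdman in 8 in vitro models. Read-out is OD600, or luminescence for the intracellular and dormancy models, normalised to untreated wells. Hill-fit Einf, AUC25 and GRinf are potency metrics; FIC50 and FIC90 are total Loewe fractional inhibitory concentrations as log2 (negative = synergy).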

[2] = test system: Mycobacterium tuberculosis Erdman (autoluminescent); assay: AUC25, normalised area under dose response up to IC25 (three-drug combination) (fraction (0-1)); higher = more potent at low dose
Method: as §1

[3] = test system: Mycobacterium tuberculosis Erdman (autoluminescent); assay: GRinf, maximum normalised growth rate inhibition (three-drug combination) (unitless (-1 to 1)); higher = less effect (negative = killing)
Method: as §1

[4] = test system: Mycobacterium tuberculosis Erdman (autoluminescent); assay: total FIC90 (Loewe) at 90% inhibition, three-drug combination (log2); higher = more antagonistic
Method: as §1

[5] = test system: Mycobacterium tuberculosis Erdman (autoluminescent); assay: total FIC50 (Loewe) at 50% inhibition, three-drug combination (log2); higher = more antagonistic
Method: as §1

NNC(=O)c1ccncc1 [isoniazid] + COc1c(N2C[C@@H]3CCCN[C@@H]3C2)c(F)cc2c(=O)c(C(=O)O)cn(C3CC3)c12 [moxifloxacin] + CO[C@H]1/C=C/O[C@@]2(C)Oc3c(C)c(O)c4c(O)c(c(/C=N/N5CCN(C6CCCC6)CC5)c(O)c4c3C2=O)NC(=O)/C(C)=C\C=C\[C@H](C)[C@H](O)[C@@H](C)[C@@H](O)[C@@H](C)[C@H](OC(C)=O)[C@@H]1C [rifapentine]
Details	AUC25, [2]	Einf, [1]	GRinf, [3]	total FIC50, [5]	total FIC90, [4]
in vitro model: acidic pH 5.7, time point: constant (~7 days, model-specific)	0.0764	0.856	-0.0715	0.631	–
in vitro model: acidic pH 5.7, time point: terminal (~4-5 doublings, model-specific)	0.0472	0.974	-0.112	0.694	0.483
in vitro model: intracellular J774, time point: constant = terminal	–	0.952	-0.208	–	0.563

Details	AUC25, [2]	Einf, [1]	GRinf, [3]	total FIC50, [5]	total FIC90, [4]
in vitro model: butyrate, time point: constant (~7 days, model-specific)	0.0757	0.917	0.00281	0.673	0.414
in vitro model: butyrate, time point: terminal (~4-5 doublings, model-specific)	0.0584	0.965	0.00571	0.595	0.447
in vitro model: cholesterol 0.05 mM, time point: constant (~7 days, model-specific)	0.102	0.644	-0.051	0.862	–
in vitro model: cholesterol 0.05 mM, time point: terminal (~4-5 doublings, model-specific)	0.0878	0.88	-0.115	0.866	0.95
in vitro model: cholesterol-high 0.2 mM, time point: constant (~7 days, model-specific)	0.0823	0.922	-0.472	0.636	–
in vitro model: cholesterol-high 0.2 mM, time point: terminal (~4-5 doublings, model-specific)	0.0703	1	-0.778	0.916	0.976
in vitro model: dormancy (butyrate + nitrate, low O2), time point: constant (~7 days, model-specific)	0.0676	0.866	0.268	0.401	0.429
in vitro model: dormancy (butyrate + nitrate, low O2), time point: terminal (~4-5 doublings, model-specific)	0.0486	0.97	-0.0791	0.655	0.61
in vitro model: standard 7H9 glycerol, time point: constant = terminal	0.0438	0.911	0.0464	0.774	0.752
in vitro model: valerate, time point: constant (~7 days, model-specific)	0.0564	0.866	-0.0209	0.608	–
in vitro model: valerate, time point: terminal (~4-5 doublings, model-specific)	0.0386	0.933	-0.00377	0.659	0.621

NNC(=O)c1ccncc1 [isoniazid] + COc1c(N2C[C@@H]3CCCN[C@@H]3C2)c(F)cc2c(=O)c(C(=O)O)cn(C3CC3)c12 [moxifloxacin] + CO[C@H]1/C=C/O[C@@]2(C)Oc3c(C)c(O)c4c(O)c(c(/C=N/N5CCN(C)CC5)c(O)c4c3C2=O)NC(=O)/C(C)=C\C=C\[C@H](C)[C@H](O)[C@@H](C)[C@@H](O)[C@@H](C)[C@H](OC(C)=O)[C@@H]1C [rifampicin]
Details	AUC25, [2]	Einf, [1]	GRinf, [3]	total FIC50, [5]	total FIC90, [4]
in vitro model: acidic pH 5.7, time point: constant (~7 days, model-specific)	0.0693	0.835	-0.0692	0.568	–
in vitro model: acidic pH 5.7, time point: terminal (~4-5 doublings, model-specific)	0.0605	0.974	-0.11	0.624	0.457
in vitro model: intracellular J774, time point: constant = terminal	–	0.969	-0.238	–	0.594

Details	AUC25, [2]	Einf, [1]	GRinf, [3]	total FIC50, [5]	total FIC90, [4]
in vitro model: butyrate, time point: constant (~7 days, model-specific)	0.104	0.934	-0.00353	0.315	0.977
in vitro model: butyrate, time point: terminal (~4-5 doublings, model-specific)	0.0772	0.969	0.000303	0.345	0.38
in vitro model: cholesterol 0.05 mM, time point: constant (~7 days, model-specific)	0.0843	0.603	0.0201	0.719	–
in vitro model: cholesterol 0.05 mM, time point: terminal (~4-5 doublings, model-specific)	0.0746	0.87	-0.125	1.04	0.125
in vitro model: cholesterol-high 0.2 mM, time point: constant (~7 days, model-specific)	0.0802	0.879	-0.196	0.265	–
in vitro model: cholesterol-high 0.2 mM, time point: terminal (~4-5 doublings, model-specific)	0.0682	1	-0.836	0.508	0.443
in vitro model: dormancy (butyrate + nitrate, low O2), time point: constant (~7 days, model-specific)	0.0766	0.882	0.232	0.163	-0.336
in vitro model: dormancy (butyrate + nitrate, low O2), time point: terminal (~4-5 doublings, model-specific)	0.0621	0.98	-0.102	0.14	0.342
in vitro model: standard 7H9 glycerol, time point: constant = terminal	0.0275	0.873	0.197	0.736	–
in vitro model: valerate, time point: constant (~7 days, model-specific)	0.0382	0.865	0.0264	0.773	–
in vitro model: valerate, time point: terminal (~4-5 doublings, model-specific)	0.0263	0.93	0.0382	0.731	0.407

NNC(=O)c1ccncc1 [isoniazid] + COc1c(N2C[C@@H]3CCCN[C@@H]3C2)c(F)cc2c(=O)c(C(=O)O)cn(C3CC3)c12 [moxifloxacin] + NC(=O)c1cnccn1 [pyrazinamide]
Details	AUC25, [2]	Einf, [1]	GRinf, [3]	total FIC50, [5]	total FIC90, [4]
in vitro model: acidic pH 5.7, time point: constant (~7 days, model-specific)	0.0943	0.811	-0.673	-1.74	–
in vitro model: acidic pH 5.7, time point: terminal (~4-5 doublings, model-specific)	0.0851	0.971	-0.382	-2.52	-1.33
in vitro model: intracellular J774, time point: constant = terminal	–	0.997	-0.252	–	0.681

Details	AUC25, [2]	Einf, [1]	GRinf, [3]	total FIC50, [5]	total FIC90, [4]
in vitro model: butyrate, time point: constant (~7 days, model-specific)	0.0913	0.951	-0.232	-1.78	-0.791
in vitro model: butyrate, time point: terminal (~4-5 doublings, model-specific)	0.0549	0.975	-0.195	-1.66	-1.72
in vitro model: cholesterol 0.05 mM, time point: constant (~7 days, model-specific)	0.0921	0.697	-0.188	–	–
in vitro model: cholesterol 0.05 mM, time point: terminal (~4-5 doublings, model-specific)	0.0805	0.887	-0.177	-0.327	–
in vitro model: cholesterol-high 0.2 mM, time point: constant (~7 days, model-specific)	0.0786	0.911	-0.235	0.416	–
in vitro model: cholesterol-high 0.2 mM, time point: terminal (~4-5 doublings, model-specific)	0.0668	0.981	-0.527	0.819	0.533
in vitro model: dormancy (butyrate + nitrate, low O2), time point: constant (~7 days, model-specific)	0.0724	0.877	0.245	-2.06	-2.38
in vitro model: dormancy (butyrate + nitrate, low O2), time point: terminal (~4-5 doublings, model-specific)	0.0689	0.984	-0.161	-1.92	-1.58
in vitro model: standard 7H9 glycerol, time point: constant = terminal	0.0639	0.983	-0.168	–	–
in vitro model: valerate, time point: constant (~7 days, model-specific)	0.117	0.877	0.0249	-1.97	–
in vitro model: valerate, time point: terminal (~4-5 doublings, model-specific)	0.0825	0.931	0.0159	-1.91	-1.83

NNC(=O)c1ccncc1 [isoniazid] + COc1c(N2C[C@@H]3CCCN[C@@H]3C2)c(F)cc2c(=O)c(C(=O)O)cn(C3CC3)c12 [moxifloxacin] + O=[N+]([O-])c1cn2c(n1)OC[C@@H](OCc1ccc(OC(F)(F)F)cc1)C2 [pretomanid]
Details	AUC25, [2]	Einf, [1]	GRinf, [3]	total FIC50, [5]	total FIC90, [4]
in vitro model: acidic pH 5.7, time point: constant (~7 days, model-specific)	0.105	0.752	-0.684	4.5	–
in vitro model: acidic pH 5.7, time point: terminal (~4-5 doublings, model-specific)	0.0907	0.959	-0.532	4.46	4.49
in vitro model: intracellular J774, time point: constant = terminal	–	0.994	-0.481	–	0.579

Details	AUC25, [2]	Einf, [1]	GRinf, [3]	total FIC50, [5]	total FIC90, [4]
in vitro model: butyrate, time point: constant (~7 days, model-specific)	0.0536	0.929	-0.0807	2.83	2.02
in vitro model: butyrate, time point: terminal (~4-5 doublings, model-specific)	0.0441	0.974	-0.0869	2.53	2.38
in vitro model: cholesterol 0.05 mM, time point: constant (~7 days, model-specific)	0.105	0.746	-0.26	1.75	–
in vitro model: cholesterol 0.05 mM, time point: terminal (~4-5 doublings, model-specific)	0.0994	0.957	-0.35	8.24	1.68
in vitro model: cholesterol-high 0.2 mM, time point: constant (~7 days, model-specific)	0.0779	0.892	-0.144	0.366	–
in vitro model: cholesterol-high 0.2 mM, time point: terminal (~4-5 doublings, model-specific)	0.0578	0.977	-0.646	0.407	0.342
in vitro model: dormancy (butyrate + nitrate, low O2), time point: constant (~7 days, model-specific)	0.0796	0.873	0.251	2.42	2.29
in vitro model: dormancy (butyrate + nitrate, low O2), time point: terminal (~4-5 doublings, model-specific)	0.0682	0.986	-0.111	2.34	2.6
in vitro model: standard 7H9 glycerol, time point: constant = terminal	0.0818	0.979	-0.202	1.14	0.349
in vitro model: valerate, time point: constant (~7 days, model-specific)	0.107	0.898	-0.0314	2.35	–
in vitro model: valerate, time point: terminal (~4-5 doublings, model-specific)	0.071	0.948	-0.0412	2.43	2.4

Reference: the supplement of paper PMC8617591
